Source: PMC10176470, “Engaging a Non-catalytic Cysteine Residue Drives Potent and Selective Inhibition of Caspase-6” (Journal of the American Chemical Society, 2023)

Key:
Type in all cases: cell-based
[1] = target: proteins of HEK293T cells transiently overexpressing caspase-6 (Homo sapiens, UniProt P78527); settings: exp_ref Probe; protein PRKDC (P78527); analysis C6
[2] = target: proteins of HEK293T cells transiently overexpressing caspase-6 (Homo sapiens, UniProt O75390); settings: exp_ref Probe; protein CS (O75390); analysis C6
[3] = target: proteins of HEK293T cells transiently overexpressing caspase-6 (Homo sapiens, UniProt P14868); settings: exp_ref Probe; protein DARS (P14868); analysis C6
[4] = target: proteins of HEK293T cells transiently overexpressing caspase-6 (Homo sapiens, UniProt P60842); settings: exp_ref Probe; protein EIF4A1 (P60842); analysis C6
[5] = target: proteins of HEK293T cells transiently overexpressing caspase-6 (Homo sapiens, UniProt P22102); settings: exp_ref Probe; protein GART (P22102); analysis C6
[6] = target: proteins of HEK293T cells transiently overexpressing caspase-6 (Homo sapiens, UniProt Q13838); settings: exp_ref Probe; protein DDX39B (Q13838); analysis C6
[7] = target: proteins of HEK293T cells transiently overexpressing caspase-6 (Homo sapiens, UniProt Q99873); settings: exp_ref Probe; protein PRMT1 (Q99873); analysis C6
[8] = target: proteins of HEK293T cells transiently overexpressing caspase-6 (Homo sapiens, UniProt P04264); settings: Probe; protein KRT1 P04264
[9] = target: proteins of HEK293T cells transiently overexpressing caspase-6 (Homo sapiens, UniProt P49736); settings: Probe; protein MCM2 P49736
[10] = target: proteins of HEK293T cells transiently overexpressing caspase-6 (Homo sapiens, UniProt P04181); settings: exp_ref Probe; protein OAT (P04181); analysis C6
[11] = target: proteins of HEK293T cells transiently overexpressing caspase-6 (Homo sapiens, UniProt Q13428); settings: exp_ref Probe; protein TCOF1 (Q13428); analysis C6
[12] = target: proteins of HEK293T cells transiently overexpressing caspase-6 (Homo sapiens, UniProt P62701); settings: exp_ref Probe; protein RPS4X (P62701); analysis C6
[13] = target: proteins of HEK293T cells transiently overexpressing caspase-6 (Homo sapiens, UniProt P12956); settings: protein XRCC6 (P12956)
[14] = target: proteins of HEK293T cells transiently overexpressing caspase-6 (Homo sapiens, UniProt Q9NZI8); settings: Probe; protein IGF2BP1 Q9NZI8
[15] = target: proteins of HEK293T cells transiently overexpressing caspase-6 (Homo sapiens, UniProt P23396); settings: exp_ref Probe; protein RPS3 (P23396); analysis C6
[16] = target: proteins of HEK293T cells transiently overexpressing caspase-6 (Homo sapiens, UniProt Q15366); settings: exp_ref Probe; protein PCBP2 (Q15366); analysis C6
[17] = target: proteins of HEK293T cells transiently overexpressing caspase-6 (Homo sapiens, UniProt Q14566); settings: exp_ref Probe; protein MCM6 (Q14566); analysis C6
[18] = target: proteins of HEK293T cells transiently overexpressing caspase-6 (Homo sapiens, UniProt P26640); settings: Probe; protein VARS P26640
[19] = target: proteins of HEK293T cells transiently overexpressing caspase-6 (Homo sapiens, UniProt Q99497); settings: exp_ref Probe; protein PARK7 (Q99497); analysis C6
[20] = target: proteins of HEK293T cells transiently overexpressing caspase-6 (Homo sapiens, UniProt P55072); settings: exp_ref Probe; protein VCP (P55072); analysis C6
[21] = target: proteins of HEK293T cells transiently overexpressing caspase-6 (Homo sapiens, UniProt P00492); settings: Probe; protein HPRT1 P00492
[22] = target: proteins of HEK293T cells transiently overexpressing caspase-6 (Homo sapiens, UniProt P13667); settings: Probe; protein PDIA4 P13667
[23] = target: proteins of HEK293T cells transiently overexpressing caspase-6 (Homo sapiens, UniProt P30050); settings: protein RPL12 (P30050)
[24] = target: proteins of HEK293T cells transiently overexpressing caspase-6 (Homo sapiens, UniProt P10809); settings: protein HSPD1 (P10809)
Sequence of proteins of HEK293T cells transiently overexpressing caspase-6 (Homo sapiens, UniProt P10809) (P10809 27-573): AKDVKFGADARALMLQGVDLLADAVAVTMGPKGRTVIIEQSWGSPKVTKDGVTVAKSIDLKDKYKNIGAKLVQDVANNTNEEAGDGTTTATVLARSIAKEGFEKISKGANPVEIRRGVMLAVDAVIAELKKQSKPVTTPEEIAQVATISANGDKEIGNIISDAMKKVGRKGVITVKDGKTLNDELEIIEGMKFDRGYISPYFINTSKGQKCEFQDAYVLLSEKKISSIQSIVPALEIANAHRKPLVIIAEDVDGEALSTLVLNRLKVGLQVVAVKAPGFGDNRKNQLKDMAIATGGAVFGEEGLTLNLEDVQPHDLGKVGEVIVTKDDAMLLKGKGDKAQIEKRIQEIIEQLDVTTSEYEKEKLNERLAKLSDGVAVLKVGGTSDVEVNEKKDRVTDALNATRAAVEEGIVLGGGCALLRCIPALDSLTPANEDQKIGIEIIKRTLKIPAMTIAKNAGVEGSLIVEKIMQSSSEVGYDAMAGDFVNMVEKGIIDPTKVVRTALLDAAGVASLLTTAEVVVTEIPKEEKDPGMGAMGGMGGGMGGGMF

Sequence of proteins of HEK293T cells transiently overexpressing caspase-6 (Homo sapiens, UniProt P12956) (P12956 whole entry): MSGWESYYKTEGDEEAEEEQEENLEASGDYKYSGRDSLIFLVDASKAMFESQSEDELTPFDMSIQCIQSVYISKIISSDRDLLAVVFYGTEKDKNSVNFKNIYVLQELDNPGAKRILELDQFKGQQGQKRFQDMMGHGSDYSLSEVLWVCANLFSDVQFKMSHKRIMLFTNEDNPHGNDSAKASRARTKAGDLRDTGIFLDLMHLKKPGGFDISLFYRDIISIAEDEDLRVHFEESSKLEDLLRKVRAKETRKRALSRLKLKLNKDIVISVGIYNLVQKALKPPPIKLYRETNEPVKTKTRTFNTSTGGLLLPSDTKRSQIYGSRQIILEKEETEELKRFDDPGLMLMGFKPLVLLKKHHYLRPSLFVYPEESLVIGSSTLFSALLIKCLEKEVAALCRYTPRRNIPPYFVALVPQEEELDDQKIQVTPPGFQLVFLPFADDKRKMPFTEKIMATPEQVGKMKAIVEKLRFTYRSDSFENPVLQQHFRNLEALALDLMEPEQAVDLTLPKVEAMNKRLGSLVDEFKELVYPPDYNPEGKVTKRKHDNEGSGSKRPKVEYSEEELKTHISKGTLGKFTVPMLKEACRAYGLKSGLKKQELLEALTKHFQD
Sequence of proteins of HEK293T cells transiently overexpressing caspase-6 (Homo sapiens, UniProt P14868) (P14868 whole entry): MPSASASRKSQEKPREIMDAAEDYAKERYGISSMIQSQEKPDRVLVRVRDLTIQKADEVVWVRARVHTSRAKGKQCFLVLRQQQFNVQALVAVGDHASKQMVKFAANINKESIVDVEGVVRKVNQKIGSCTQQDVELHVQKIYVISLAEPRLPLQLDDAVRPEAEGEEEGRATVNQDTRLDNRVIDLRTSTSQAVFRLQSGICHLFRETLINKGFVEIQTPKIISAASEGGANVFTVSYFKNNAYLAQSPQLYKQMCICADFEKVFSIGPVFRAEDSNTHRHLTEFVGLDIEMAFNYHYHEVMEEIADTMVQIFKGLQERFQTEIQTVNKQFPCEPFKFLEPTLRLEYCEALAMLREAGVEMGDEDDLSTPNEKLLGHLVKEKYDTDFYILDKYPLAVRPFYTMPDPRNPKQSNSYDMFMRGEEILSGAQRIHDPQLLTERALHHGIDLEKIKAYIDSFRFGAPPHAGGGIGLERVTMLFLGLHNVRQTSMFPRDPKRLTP
Sequence of proteins of HEK293T cells transiently overexpressing caspase-6 (Homo sapiens, UniProt P22102) (P22102 whole entry): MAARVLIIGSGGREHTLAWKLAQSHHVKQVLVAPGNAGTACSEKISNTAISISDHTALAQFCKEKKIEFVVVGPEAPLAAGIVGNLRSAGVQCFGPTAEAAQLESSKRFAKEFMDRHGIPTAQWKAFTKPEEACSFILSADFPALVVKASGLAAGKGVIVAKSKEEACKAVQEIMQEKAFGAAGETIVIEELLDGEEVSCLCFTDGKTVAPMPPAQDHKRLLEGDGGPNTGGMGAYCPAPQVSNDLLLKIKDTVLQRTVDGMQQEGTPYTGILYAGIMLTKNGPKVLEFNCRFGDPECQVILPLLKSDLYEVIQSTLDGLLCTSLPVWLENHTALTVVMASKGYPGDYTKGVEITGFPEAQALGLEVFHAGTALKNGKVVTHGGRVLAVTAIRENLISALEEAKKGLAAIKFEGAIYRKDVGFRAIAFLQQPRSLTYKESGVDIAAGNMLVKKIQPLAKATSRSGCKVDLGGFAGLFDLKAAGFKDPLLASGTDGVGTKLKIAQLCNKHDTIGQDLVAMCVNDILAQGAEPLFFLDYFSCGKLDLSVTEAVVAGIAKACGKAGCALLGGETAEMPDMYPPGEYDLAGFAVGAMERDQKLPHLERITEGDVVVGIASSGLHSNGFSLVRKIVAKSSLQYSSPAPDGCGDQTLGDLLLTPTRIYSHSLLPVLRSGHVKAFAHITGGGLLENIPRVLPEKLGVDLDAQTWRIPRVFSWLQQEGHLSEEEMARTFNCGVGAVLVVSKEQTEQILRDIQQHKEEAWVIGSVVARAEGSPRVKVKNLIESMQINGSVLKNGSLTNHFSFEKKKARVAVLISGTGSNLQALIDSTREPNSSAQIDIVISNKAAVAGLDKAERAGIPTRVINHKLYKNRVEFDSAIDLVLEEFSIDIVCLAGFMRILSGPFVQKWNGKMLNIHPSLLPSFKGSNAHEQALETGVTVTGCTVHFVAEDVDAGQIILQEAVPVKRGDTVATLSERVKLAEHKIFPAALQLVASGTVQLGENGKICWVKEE
Sequence of proteins of HEK293T cells transiently overexpressing caspase-6 (Homo sapiens, UniProt Q13428) (Q13428 whole entry): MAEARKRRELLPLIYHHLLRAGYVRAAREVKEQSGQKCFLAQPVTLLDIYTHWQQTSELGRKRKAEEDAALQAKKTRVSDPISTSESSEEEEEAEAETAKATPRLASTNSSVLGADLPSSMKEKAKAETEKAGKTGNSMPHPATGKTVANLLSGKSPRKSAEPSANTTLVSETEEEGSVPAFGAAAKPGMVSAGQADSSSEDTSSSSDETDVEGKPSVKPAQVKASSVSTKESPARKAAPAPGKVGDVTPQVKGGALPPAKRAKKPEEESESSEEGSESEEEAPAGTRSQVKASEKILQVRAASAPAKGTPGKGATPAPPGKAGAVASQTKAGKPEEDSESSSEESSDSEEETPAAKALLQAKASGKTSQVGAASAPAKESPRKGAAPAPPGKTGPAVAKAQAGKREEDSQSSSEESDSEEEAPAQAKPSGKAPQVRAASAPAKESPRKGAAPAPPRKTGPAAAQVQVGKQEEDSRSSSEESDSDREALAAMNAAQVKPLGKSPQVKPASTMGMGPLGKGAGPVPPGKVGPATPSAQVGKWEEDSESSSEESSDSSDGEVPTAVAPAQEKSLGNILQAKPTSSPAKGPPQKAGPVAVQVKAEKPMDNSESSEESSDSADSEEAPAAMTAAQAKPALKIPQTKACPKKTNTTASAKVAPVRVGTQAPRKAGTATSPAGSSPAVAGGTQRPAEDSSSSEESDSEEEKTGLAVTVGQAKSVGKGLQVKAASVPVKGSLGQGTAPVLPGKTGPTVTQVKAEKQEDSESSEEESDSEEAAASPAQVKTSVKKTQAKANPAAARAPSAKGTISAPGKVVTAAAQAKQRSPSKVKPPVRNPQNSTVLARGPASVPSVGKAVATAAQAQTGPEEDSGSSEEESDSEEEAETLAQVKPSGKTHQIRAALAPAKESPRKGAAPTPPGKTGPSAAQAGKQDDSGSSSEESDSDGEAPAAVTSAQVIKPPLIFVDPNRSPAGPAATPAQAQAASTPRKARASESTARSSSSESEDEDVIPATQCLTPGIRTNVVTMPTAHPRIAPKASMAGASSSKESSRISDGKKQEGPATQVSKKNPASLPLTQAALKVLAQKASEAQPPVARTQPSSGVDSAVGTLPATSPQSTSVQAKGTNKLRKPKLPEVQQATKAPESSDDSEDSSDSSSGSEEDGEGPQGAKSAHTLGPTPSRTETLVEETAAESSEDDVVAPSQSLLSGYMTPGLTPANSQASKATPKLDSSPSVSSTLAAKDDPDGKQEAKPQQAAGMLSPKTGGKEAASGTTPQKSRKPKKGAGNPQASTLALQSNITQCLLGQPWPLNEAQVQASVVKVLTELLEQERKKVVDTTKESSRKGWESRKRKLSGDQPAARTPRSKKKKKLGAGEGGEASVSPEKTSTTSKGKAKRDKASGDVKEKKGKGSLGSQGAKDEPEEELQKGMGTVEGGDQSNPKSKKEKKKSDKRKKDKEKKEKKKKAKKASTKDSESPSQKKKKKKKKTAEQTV
Sequence of proteins of HEK293T cells transiently overexpressing caspase-6 (Homo sapiens, UniProt P55072) (P55072 whole entry): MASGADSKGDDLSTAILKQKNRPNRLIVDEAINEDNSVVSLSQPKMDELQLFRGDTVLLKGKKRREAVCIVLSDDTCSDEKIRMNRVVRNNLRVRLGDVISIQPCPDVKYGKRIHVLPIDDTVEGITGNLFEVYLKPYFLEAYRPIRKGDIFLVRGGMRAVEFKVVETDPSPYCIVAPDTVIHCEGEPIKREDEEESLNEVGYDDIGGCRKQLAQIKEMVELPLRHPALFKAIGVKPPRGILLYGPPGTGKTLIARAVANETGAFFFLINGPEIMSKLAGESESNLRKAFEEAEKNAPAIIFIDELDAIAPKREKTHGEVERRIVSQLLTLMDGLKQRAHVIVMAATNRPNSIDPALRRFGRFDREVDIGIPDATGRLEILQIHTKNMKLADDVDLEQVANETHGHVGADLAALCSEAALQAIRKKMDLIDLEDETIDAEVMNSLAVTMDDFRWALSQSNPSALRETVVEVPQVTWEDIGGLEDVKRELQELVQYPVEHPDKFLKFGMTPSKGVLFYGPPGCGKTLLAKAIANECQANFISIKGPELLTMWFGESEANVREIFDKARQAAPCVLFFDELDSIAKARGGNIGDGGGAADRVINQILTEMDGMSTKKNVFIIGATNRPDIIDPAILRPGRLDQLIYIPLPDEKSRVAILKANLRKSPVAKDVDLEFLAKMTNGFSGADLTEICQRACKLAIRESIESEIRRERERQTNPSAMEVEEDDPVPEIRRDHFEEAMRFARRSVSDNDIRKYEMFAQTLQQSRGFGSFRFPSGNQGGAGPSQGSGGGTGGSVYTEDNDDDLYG

SMILES: C#CCOc1ccc([C@@H]2C[C@@H](C(=O)Nc3ccc(OC(F)(F)F)cc3)CN(S(=O)(=O)C=C)C2)cc1 (relative stereo) [13-t]
- enrich.exp.med [1]: 0.5475
- enrich.exp.med [2]: -0.1126
- enrich.exp.med [3]: 0.4884
- enrich.exp.med [4]: 0.8215
- enrich.exp.med [5]: 0.2203
- enrich.exp.med [6]: 0.9779
- enrich.exp.med [7]: -0.1105
- enrich.exp.med [8]: -8.014
- enrich.exp.med [9]: -1.091
- enrich.exp.med [10]: 1.012
- enrich.exp.med [11]: 0.9444
- enrich.exp.med [12]: 0.8885
- enrich.exp.med ([13]; exp_ref Probe, analysis C6): 1.036
- enrich.exp.med.lin [13]: 2.05
- enrich.exp.med.log2 [13]: 1.036
- enrich.exp.med [14]: -0.7898
- enrich.exp.med [15]: 0.6101
- enrich.exp.med [16]: 0.5184
- enrich.exp.med [17]: 0.05791
- enrich.exp.med [18]: -1.705
- enrich.exp.med [19]: 0.478
- enrich.exp.med [20]: -0.3231
- enrich.exp.med [21]: -1.112
- enrich.exp.med [22]: -0.4487
- enrich.exp.med ([23]; exp_ref Probe, analysis C6): 0.2557
- enrich.exp.med.lin [23]: 1.194
- enrich.exp.med.log2 [23]: 0.2557
- enrich.exp.med ([24]; exp_ref Probe, analysis C6): 0.7989
- enrich.exp.med.lin [24]: 1.7398
- enrich.exp.med.log2 [24]: 0.7989
